Assay results published in ChEMBL document CHEMBL1201862, “PubChem BioAssay data set” (2004).
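Method: 48-hour compound exposure of cells in 96-well plates, five concentrations, linear interpolation of endpoints. Here, GI50 denotes the concentration required for 50% inhibition of growth.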 Active and inactive are the calls of the source. Rule as the data show it: active = GI50 up to about 1.1 µM and inactive = higher.

What was measured:
Experiment in all cases: growth of human tumour cells (NCI), 48 h
HL-60 = test system: HL-60
A549 = test system: A549
SN12C = test system: SN12C
HCC 2998 = test system: HCC 2998
DU-145 = test system: DU-145
SNB-75 = test system: SNB-75
SF-295 = test system: SF-295
SW-620 = test system: SW-620
UACC-257 = test system: UACC-257
HT-29 = test system: HT-29
OVCAR-3 = test system: OVCAR-3
OVCAR-5 = test system: OVCAR-5
UACC-62 = test system: UACC-62
EKVX = test system: EKVX
HOP-62 = test system: HOP-62
SK-OV-3 = test system: SK-OV-3
TK-10 = test system: TK-10
RXF 393 = test system: RXF 393
SF-268 = test system: SF-268
NCI-H522 = test system: NCI-H522

Measured: GI50

CC(=O)/N=C1\N/C(=C/c2cc([N+](=O)[O-])ccc2O)CN1C
inactive: HL-60 69.2 µM | A549 > 100 µM | SN12C > 100 µM | HCC 2998 > 100 µM | DU-145 > 100 µM | SNB-75 > 100 µM | SF-295 > 100 µM | SW-620 > 100 µM | UACC-257 > 100 µM | HT-29 > 100 µM | OVCAR-3 > 100 µM | OVCAR-5 > 100 µM | UACC-62 > 100 µM | EKVX > 100 µM | HOP-62 > 100 µM | SK-OV-3 > 100 µM | TK-10 > 100 µM

C=C1CC[C@@H](Br)C(C)(C)[C@]12CCC(C)(O)C(Cl)C2 (some centres not stated)
inactive: HL-60 19.9 µM | RXF 393 17.5 µM | A549 20 µM | SN12C 16.4 µM | HCC 2998 23.3 µM | SNB-75 31 µM | SF-295 20.6 µM | SW-620 14.2 µM | SF-268 17.4 µM | UACC-257 17.9 µM | HT-29 16.8 µM | OVCAR-3 20.3 µM | OVCAR-5 19.5 µM | UACC-62 18.5 µM | NCI-H522 16.6 µM | EKVX 19.1 µM | HOP-62 23.3 µM | SK-OV-3 19.5 µM | TK-10 29.2 µM

CCOC(=O)/C=C1/C(CCCOCc2ccccc2)C2CCCC23CC2(CCN13)OCCO2 (configuration not stated)
inactive: HL-60 10.2 µM | RXF 393 6.32 µM | A549 18.9 µM | SN12C 25.5 µM | HCC 2998 25.8 µM | SNB-75 2.99 µM | SF-295 23.6 µM | SW-620 33.9 µM | SF-268 42 µM | UACC-257 19.5 µM | HT-29 16.9 µM | OVCAR-3 18.3 µM | OVCAR-5 44 µM | UACC-62 15.2 µM | NCI-H522 6.82 µM | EKVX 34.8 µM | SK-OV-3 43 µM | TK-10 36.2 µM

O=C(NN1C(=O)CSC1c1ccc(C(F)(F)F)cc1)c1ccncc1 (configuration not stated)
inactive: HL-60 > 100 µM | RXF 393 97.3 µM | A549 > 100 µM | SN12C > 100 µM | HCC 2998 > 100 µM | SNB-75 > 100 µM | SF-295 > 100 µM | SW-620 > 100 µM | SF-268 > 100 µM | UACC-257 > 100 µM | HT-29 > 100 µM | OVCAR-3 > 100 µM | OVCAR-5 > 100 µM | UACC-62 > 100 µM | NCI-H522 > 100 µM | EKVX > 100 µM | HOP-62 > 100 µM | SK-OV-3 > 100 µM

N/C(=N\O)N/N=C/c1ncccc1O
inactive: HL-60 2.41 µM | RXF 393 38.2 µM | A549 10.1 µM | SN12C 16.7 µM | HCC 2998 12.1 µM | SNB-75 17.9 µM | SF-295 10.6 µM | SW-620 22 µM | SF-268 22.7 µM | UACC-257 26.1 µM | HT-29 13.4 µM | OVCAR-3 14.8 µM | OVCAR-5 31.5 µM | UACC-62 10.3 µM | NCI-H522 15.1 µM | EKVX 22.1 µM | HOP-62 19.8 µM | SK-OV-3 35.9 µM

CC12CCC(=O)N1c1cnccc1N2 (configuration not stated)
inactive: HL-60 > 100 µM | A549 > 100 µM | SN12C > 100 µM | HCC 2998 > 100 µM | SNB-75 > 100 µM | SF-295 > 100 µM | SW-620 > 100 µM | SF-268 > 100 µM | UACC-257 > 100 µM | HT-29 > 100 µM | OVCAR-3 > 100 µM | OVCAR-5 > 100 µM | UACC-62 > 100 µM | NCI-H522 > 100 µM | EKVX > 100 µM | HOP-62 > 100 µM | SK-OV-3 > 100 µM | TK-10 > 100 µM

Nc1c(S(=O)(=O)O)cc(S(=O)(=O)O)c2ccc(/N=N/c3ccc(/C=C/c4ccc(/N=N/c5ccc6c(S(=O)(=O)O)cc(S(=O)(=O)O)c(N)c6c5O)cc4S(=O)(=O)O)c(S(=O)(=O)O)c3)c(O)c12
inactive: HL-60 36.1 µM | RXF 393 > 85.1 µM | A549 75 µM | SN12C > 100 µM | HCC 2998 > 100 µM | SNB-75 56.9 µM | SF-295 > 100 µM | SW-620 > 100 µM | SF-268 > 100 µM | UACC-257 > 100 µM | HT-29 > 100 µM | OVCAR-3 > 100 µM | OVCAR-5 59.4 µM | UACC-62 > 100 µM | NCI-H522 54.1 µM | EKVX > 100 µM | HOP-62 > 100 µM | SK-OV-3 97.1 µM

CCOC(=O)CCc1c(C)c2c(O)cc(O)cc2oc1=O
inactive: HL-60 42.1 µM | RXF 393 > 78.9 µM | A549 > 100 µM | SN12C > 100 µM | HCC 2998 > 100 µM | SNB-75 > 100 µM | SF-295 > 68.9 µM | SW-620 > 100 µM | SF-268 > 100 µM | UACC-257 > 100 µM | HT-29 > 100 µM | OVCAR-3 > 100 µM | OVCAR-5 > 100 µM | UACC-62 > 100 µM | NCI-H522 > 100 µM | EKVX > 100 µM | HOP-62 > 100 µM | SK-OV-3 > 100 µM

CC1(C)OC[C@H](C(=N)OCc2ccccc2)O1
inactive: HL-60 > 100 µM | RXF 393 > 100 µM | A549 > 100 µM | SN12C > 100 µM | HCC 2998 > 100 µM | SNB-75 > 100 µM | SF-295 > 100 µM | SW-620 > 100 µM | SF-268 > 100 µM | UACC-257 > 100 µM | HT-29 > 100 µM | OVCAR-3 > 100 µM | OVCAR-5 > 100 µM | UACC-62 > 100 µM | NCI-H522 > 100 µM | EKVX > 100 µM | HOP-62 > 100 µM | SK-OV-3 > 100 µM | TK-10 > 100 µM

CCCCCCCCCCCCCCCc1nnc(S)[nH]1
inactive: HL-60 49.8 µM | RXF 393 > 100 µM | SN12C > 100 µM | HCC 2998 > 100 µM | SNB-75 > 100 µM | SF-268 > 100 µM | UACC-257 88.7 µM | HT-29 > 100 µM | OVCAR-3 > 100 µM | OVCAR-5 > 100 µM | UACC-62 97.9 µM | NCI-H522 19.6 µM | EKVX > 100 µM | HOP-62 > 100 µM | SK-OV-3 > 100 µM | TK-10 > 100 µM

O=C1C=CC=C/C1=C1\N=C(c2ccccc2OCC(=O)c2ccccc2)SS1
inactive: HL-60 > 100 µM | RXF 393 > 100 µM | A549 > 100 µM | SN12C > 100 µM | HCC 2998 > 100 µM | SNB-75 19.6 µM | SF-295 74.5 µM | SW-620 > 100 µM | SF-268 58.1 µM | UACC-257 > 100 µM | HT-29 > 100 µM | OVCAR-3 > 100 µM | OVCAR-5 > 100 µM | UACC-62 > 100 µM | EKVX > 100 µM | HOP-62 39.4 µM | SK-OV-3 > 100 µM | TK-10 > 100 µM
